Molecular target: Nicotinamide phosphoribosyltransferase (Homo sapiens, UniProt P43490)
Assay: Enzyme Assay and NMN Detection: NAMPT reaction was performed in 50 mM HEPES, pH 7.5, containing 5 mM MgCl2, 0.1% Prionex, 0.005% Tween 20, and 1 mM TCEP at room temperature in Greiner 384-well black polypropylene plates. […] Following 2 h incubation the reaction was stopped by addition 2.5 ul 20% acetophenone in dimethyl sulfoxide (DMSO) and 2.5 ul 2 MKOH. Plates were centrifuges and added with 10.5 ul 88% formic acid. […] The increased concentration of NMN was determined from a calibration curve obtained at the time of experiment.

Nicotinamide phosphoribosyltransferase, sequence (P43490 whole entry): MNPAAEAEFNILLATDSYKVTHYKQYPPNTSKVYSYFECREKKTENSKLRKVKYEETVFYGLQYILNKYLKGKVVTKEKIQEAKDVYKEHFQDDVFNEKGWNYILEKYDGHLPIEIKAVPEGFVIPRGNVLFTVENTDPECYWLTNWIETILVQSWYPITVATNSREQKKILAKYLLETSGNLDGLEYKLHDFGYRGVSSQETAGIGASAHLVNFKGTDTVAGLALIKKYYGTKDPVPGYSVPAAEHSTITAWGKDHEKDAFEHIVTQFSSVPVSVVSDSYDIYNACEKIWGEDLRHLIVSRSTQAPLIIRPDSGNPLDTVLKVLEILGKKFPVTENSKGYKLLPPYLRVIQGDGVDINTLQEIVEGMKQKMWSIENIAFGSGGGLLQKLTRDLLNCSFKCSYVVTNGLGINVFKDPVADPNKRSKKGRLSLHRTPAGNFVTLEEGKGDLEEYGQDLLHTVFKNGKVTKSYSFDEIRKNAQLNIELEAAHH

EC50, > 20 µM:
CCOC(=O)c1ccc(NC(=O)NCc2ccncc2)nc1
CCOC(=O)c1ccc(NC(=O)NCc2ccncc2)cn1
NC(=O)c1ccc(NC(=O)NCc2ccncc2)nc1
